11 compounds from ChEMBL document CHEMBL1201862, “PubChem BioAssay data set” (2004) can be followed below.

Test systems include LOX IMVI; NCI/ADR-RES; SK-MEL-5; OVCAR-8; HOP-62; A498; COLO 205; NCI-H226; Malme-3M; OVCAR-4; HCT-15; SF-539; NCI-H23; SF-268; RXF 393; MOLT-4; SNB-19; NCI-H460; HL-60; EKVX.
Common to all, as to assay: growth of human tumour cells (NCI), 48 h

SMILES strings stand for the structures.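 Following 48 hours of exposure in 96-well plates, responses at five concentrations were used to interpolate endpoints linearly. GI50: concentration for 50% inhibition of growth.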 Activity calls are given as the source filed them. No stated cut-off is given here; in the data, active = GI50 up to about 1.1 µM and inactive = higher. Bounds are passed on as bounds.

For the compound `CC(C)(C)/C(=N\Nc1nc2ccccc2[nH]1)c1ccccn1`, the GI50 in the assay with LOX IMVI was > 100 µM (inactive); with NCI/ADR-RES it was 65.3 µM (inactive); in the assay on SK-MEL-5 it was 87.9 µM (inactive); with OVCAR-8, > 100 µM (inactive); with HOP-62 it was > 100 µM (inactive); in the assay on A498 it was > 100 µM (inactive). The GI50 in the assay with COLO 205 is 33 µM (inactive); in the assay with NCI-H226, > 100 µM (inactive); in the assay on Malme-3M it was 9.18 µM (inactive); with OVCAR-4 it was 53.7 µM (inactive); with HCT-15, 43.1 µM; in the assay on SF-539, > 100 µM (inactive). In addition, the GI50 with NCI-H23 is 82.8 µM (inactive); in the assay with SF-268, > 100 µM (inactive); in the assay with RXF 393, > 100 µM (inactive); in the assay with MOLT-4, 59.6 µM (inactive); in the assay on SNB-19 it was > 100 µM (inactive); in the assay on NCI-H460, > 100 µM (inactive).

In the case of `N#C/C(=C\c1cn(Cc2ccccc2)c2ccccc12)c1nn(-c2ccccc2)c(N)c1C#N`, the GI50 was 32.2 µM (inactive) with LOX IMVI; 17.4 µM (inactive) in the assay on NCI/ADR-RES; 11 µM (inactive) in the assay on SK-MEL-5; 10.1 µM (inactive) in the assay on OVCAR-8; 16.7 µM (inactive) in the assay on A498; 20.1 µM (inactive) in the assay with COLO 205. The GI50 was 21.4 µM (inactive) in the assay on Malme-3M; 3.24 µM (inactive) in the assay with OVCAR-4; 41.5 µM (inactive) with HL-60; 31.1 µM in the assay with HCT-15; 3.11 µM (inactive) in the assay on SF-539; 14.2 µM (inactive) with NCI-H23. For the same compound, the GI50 is 8.07 µM (inactive) in the assay on EKVX; 24.9 µM (inactive) in the assay with SF-268; 4.81 µM (inactive) in the assay on RXF 393; 26.1 µM (inactive) with MOLT-4; 13.6 µM (inactive) with SNB-19; 12 µM (inactive) in the assay on NCI-H460.

`CC(=O)Nc1ccc2c(c1)[nH]c(=O)c1cc(Cl)ccc12`: the GI50 was 19.5 µM (inactive) in the assay with LOX IMVI; 48.8 µM (inactive) with NCI/ADR-RES; 15.9 µM (inactive) in the assay with SK-MEL-5; 10 µM (inactive) with OVCAR-8; 33 µM (inactive) in the assay with HOP-62; 29.3 µM (inactive) in the assay on A498. Moreover, the GI50 in the assay on COLO 205 is 47.2 µM (inactive); in the assay with NCI-H226, 10.2 µM (inactive); in the assay with Malme-3M it was 17.1 µM (inactive); in the assay on OVCAR-4 it was 34.1 µM (inactive); with HL-60, 21.1 µM (inactive); in the assay with HCT-15, 33.1 µM. Further, the GI50 in the assay on SF-539 is 40.1 µM (inactive); in the assay with NCI-H23 it was 17.1 µM (inactive); in the assay on EKVX it was 26.2 µM (inactive); with SF-268, 26.9 µM (inactive); in the assay on MOLT-4, 2.23 µM (inactive); in the assay on SNB-19 it was 65.9 µM (inactive). Besides, the GI50 with NCI-H460 was 10.4 µM (inactive).

With `O=C(CN1C(=O)c2ccccc2C1=O)C(O)CN1C(=O)c2ccccc2C1=O` (stereo not drawn), the GI50 in the assay on LOX IMVI is 92.3 µM (inactive); with NCI/ADR-RES it was > 100 µM (inactive); with SK-MEL-5 it was > 100 µM (inactive); in the assay with OVCAR-8 it was 46.5 µM (inactive); with HOP-62, 17.9 µM (inactive); in the assay on A498 it was 87.1 µM (inactive). Also, the GI50 with COLO 205 is > 100 µM (inactive); in the assay with NCI-H226, 73.8 µM (inactive); with OVCAR-4 it was 98.4 µM (inactive); in the assay with HL-60, 44.7 µM (inactive); in the assay on HCT-15 it was 92.5 µM; in the assay with SF-539, 33.2 µM (inactive). Besides, the GI50 is 26.9 µM (inactive) in the assay on NCI-H23; 76.2 µM (inactive) with EKVX; 23.5 µM (inactive) in the assay on SF-268; 34.4 µM (inactive) in the assay with RXF 393; > 100 µM (inactive) with MOLT-4; 50.7 µM (inactive) in the assay with SNB-19. Also, the GI50 in the assay on NCI-H460 was > 100 µM (inactive).

For the compound `N/C1=C/C(=O)NC(=O)c2c(c3ccccc3oc2=O)C1`, the GI50 with LOX IMVI, with NCI/ADR-RES, in the assay with OVCAR-8, in the assay on HOP-62, with A498 and in the assay with COLO 205 was > 100 µM (inactive) in each case. Also, the GI50 in the assay with NCI-H226 is > 100 µM (inactive); with Malme-3M, > 100 µM (inactive); in the assay with OVCAR-4, > 100 µM (inactive); with HL-60, > 100 µM (inactive); with HCT-15 it was more than 100 µM; in the assay on NCI-H23, > 100 µM (inactive). In addition, the GI50 in the assay on EKVX is 46.7 µM (inactive); in the assay on SF-268 it was > 100 µM (inactive); in the assay with RXF 393, > 100 µM (inactive); in the assay with MOLT-4, > 100 µM (inactive); with SNB-19, > 100 µM (inactive); in the assay with NCI-H460, > 100 µM (inactive).

For `CC[C@@]1(C)CCC2c3ccc(O)cc3CC[C@H]2C1C` (stereo partly drawn), the GI50 was 17 µM (inactive) in the assay with LOX IMVI; 18.8 µM (inactive) in the assay with NCI/ADR-RES; 16.9 µM (inactive) with SK-MEL-5; 17.7 µM (inactive) in the assay with OVCAR-8; 18.7 µM (inactive) in the assay with HOP-62; 19.6 µM (inactive) in the assay with A498. Also, the GI50 with COLO 205 is 17 µM (inactive); in the assay on Malme-3M, 16.6 µM (inactive); with OVCAR-4 it was 19.4 µM (inactive); with HL-60, 10.8 µM (inactive); in the assay on HCT-15, 16 µM; with SF-539 it was 19.9 µM (inactive). In addition, the GI50 in the assay with NCI-H23 is 18 µM (inactive); in the assay with EKVX it was 18.2 µM (inactive); in the assay with SF-268 it was 15.5 µM (inactive); with RXF 393, 13 µM (inactive); in the assay on MOLT-4 it was 14.8 µM (inactive); in the assay on SNB-19 it was 17.5 µM (inactive). In addition, in the assay with NCI-H460, the GI50 is 22.7 µM (inactive).

`COc1nc(O)nc2c1C(c1ccc([N+](=O)[O-])cc1)c1c(OC)nc(O)nc1O2`: the GI50 with NCI/ADR-RES, with SK-MEL-5, in the assay with OVCAR-8, in the assay with HOP-62, in the assay with A498 and with COLO 205 was > 100 µM (inactive) throughout. The GI50 with NCI-H226 is > 100 µM (inactive); with OVCAR-4, > 100 µM (inactive); with HL-60 it was > 100 µM (inactive); with HCT-15, more than 100 µM; in the assay on NCI-H23, > 100 µM (inactive); in the assay with EKVX it was > 100 µM (inactive). Also, the GI50 with SF-268, in the assay with RXF 393, in the assay with MOLT-4, with SNB-19 and in the assay on NCI-H460 was > 100 µM (inactive) each time.

Consider `CC(C)NCCC(O)c1cc2ccccc2o1` (stereo not drawn), for which the GI50 with LOX IMVI, in the assay with NCI/ADR-RES, with SK-MEL-5, in the assay on OVCAR-8, in the assay on HOP-62 and in the assay with A498 was > 100 µM (inactive) each time. The GI50 with COLO 205 is > 100 µM (inactive); with NCI-H226, > 100 µM (inactive); in the assay with Malme-3M, > 100 µM (inactive); in the assay with OVCAR-4 it was > 100 µM (inactive); with HCT-15 it was more than 100 µM; with SF-539 it was > 100 µM (inactive). For the same compound, the GI50 is > 100 µM (inactive) with NCI-H23; > 100 µM (inactive) in the assay with EKVX; > 100 µM (inactive) in the assay on SF-268; > 100 µM (inactive) in the assay on RXF 393; 20.4 µM (inactive) in the assay on MOLT-4; > 100 µM (inactive) in the assay on SNB-19. Moreover, the GI50 in the assay on NCI-H460 is > 100 µM (inactive).

Take `CCC1c2[nH]c3ccccc3c2C[C@H]2C(=O)NC(Cc3ccccc3)C(=O)N12` (stereo partly drawn): the GI50 with LOX IMVI was 22.1 µM (inactive); in the assay with NCI/ADR-RES, 29.8 µM (inactive); with SK-MEL-5, 19.9 µM (inactive); in the assay on OVCAR-8 it was 34.5 µM (inactive); in the assay with HOP-62, 34.8 µM (inactive); in the assay on A498, 38.5 µM (inactive). Besides, the GI50 is 20.6 µM (inactive) in the assay on COLO 205; 28.4 µM (inactive) in the assay with NCI-H226; 19.7 µM (inactive) in the assay on Malme-3M; 33.6 µM (inactive) with OVCAR-4; 20.7 µM (inactive) with HL-60; 35 µM in the assay with HCT-15. In addition, the GI50 is 37.1 µM (inactive) in the assay with NCI-H23; 30.3 µM (inactive) with EKVX; 27.2 µM (inactive) in the assay on SF-268; 22.1 µM (inactive) with RXF 393; 21.4 µM (inactive) with MOLT-4; 34.9 µM (inactive) in the assay on SNB-19.

For the compound `COC(=O)c1cccc(COc2ccc([N+](=O)[O-])cc2Cl)c1`, the GI50 in the assay with LOX IMVI was 85.5 µM (inactive); in the assay on NCI/ADR-RES, > 100 µM (inactive); in the assay with SK-MEL-5 it was 51.1 µM (inactive); in the assay on OVCAR-8 it was > 100 µM (inactive); in the assay with HOP-62, > 100 µM (inactive); with A498, 36.5 µM (inactive). The GI50 in the assay on COLO 205 was > 100 µM (inactive); in the assay with NCI-H226, 43.2 µM (inactive); in the assay with Malme-3M, > 100 µM (inactive); with OVCAR-4, 58.3 µM (inactive); with HCT-15 it was 70.5 µM; in the assay with SF-539 it was > 100 µM (inactive). In addition, the GI50 in the assay on NCI-H23 is > 100 µM (inactive); with EKVX it was 37.4 µM (inactive); in the assay on SF-268, > 100 µM (inactive); with RXF 393, > 100 µM (inactive); in the assay on MOLT-4 it was > 100 µM (inactive); in the assay on SNB-19, > 100 µM (inactive). In addition, in the assay with NCI-H460, the GI50 was > 100 µM (inactive).

Take `Clc1cc(Cl)c2cc3cccc[n+]3cc2c1Cl`: the GI50 was 15.7 µM (inactive) with LOX IMVI; 18.3 µM (inactive) in the assay on NCI/ADR-RES; 16 µM (inactive) in the assay on SK-MEL-5; 15.1 µM (inactive) with OVCAR-8; 15.6 µM (inactive) with HOP-62; 18.6 µM (inactive) with A498. In addition, the GI50 with COLO 205 is 14.8 µM (inactive); in the assay on NCI-H226, 16.4 µM (inactive); with Malme-3M, 22.2 µM (inactive); in the assay with OVCAR-4, 15.5 µM (inactive); in the assay on HL-60, 12.7 µM (inactive); in the assay with HCT-15, 18.3 µM. Also, the GI50 in the assay with SF-539 is 18.3 µM (inactive); in the assay on NCI-H23, 16.1 µM (inactive); in the assay on EKVX, 13.8 µM (inactive); with SF-268, 12.8 µM (inactive); in the assay with MOLT-4, 14 µM (inactive); with SNB-19, 14.9 µM (inactive). Moreover, the GI50 in the assay with NCI-H460 was 16.3 µM (inactive).
